What was measured:
Assay type in all cases: cell-based
[1] = test system: carbapenem-resistant Acinetobacter baumannii (KUMC.2014.91); assay: Rezazurin assay, MIC and MBC, carbapenem-resistant strain KUMC.2014.91
[2] = test system: carbapenem-resistant Acinetobacter baumannii (KUMC.2014.90); assay: Rezazurin assay, MIC and MBC, carbapenem-resistant strain KUMC.2014.90
[3] = test system: Acinetobacter baumannii, which is a normal strain; assay: Rezazurin assay, MIC and MBC, normal strain (control)

MIC 50% ([1]; Acinetobacter baumannii (KUMC.2014.91), 50% inhibitory concentration, testing range 0.45~500): No effect
MIC 80% ([1]; Acinetobacter baumannii (KUMC.2014.91), 80% inhibitory concentration, testing range 0.45~500): No effect
MIC 50% ([2]; Acinetobacter baumannii (KUMC.2014.90), 50% inhibitory concentration, testing range 0.45~500): No effect
MIC 80% ([2]; Acinetobacter baumannii (KUMC.2014.90), 80% inhibitory concentration, testing range 0.45~500): No effect
SMILES: CC1(C)S[C@@H]2[C@H](NC(=O)[C@H](N)c3ccccc3)C(=O)N2[C@H]1C(=O)O [Ampicillin]
MBC ([1]; Acinetobacter baumannii (KUMC.2014.91), testing range 0.45~500): No effect
growth inhibition (in words) ([1]; carbapenem-resistant KUMC.2014.91 strain): unable to inhibit the growth
MBC ([2]; Acinetobacter baumannii (KUMC.2014.90), testing range 0.45~500): No effect
growth inhibition (in words) ([2]; carbapenem-resistant KUMC.2014.90 strain): unable to inhibit the growth
growth inhibition (in words) [3]: inhibited the growth
MIC50 ([3]; 50% inhibitory concentration, testing range 0.45~500): < 31.3 µg/mL
MIC80 ([3]; 80% inhibitory concentration, testing range 0.45~500): < 62.5 µg/mL
MBC ([3]; testing range 0.45~500): < 62.5 µg/mL

Source: patent US10792340B2, “Antibacterial composition for combating carbapenem-resistant gram-negative bacteria comprising ADK protein as active ingredient” (KONKUK UNIVERSITY GLOCAL INDUSTRY-ACADEMIC COLLABORATION …, priority 2015, dated 2020)
